According to patent US10392402B2, “Heterocyclic compounds as kinase inhibitors” (TRANSLATIONAL DRUG DEVELOPMENT LLC, priority 2015, dated 2019):

Tests used:
[1] = tested on: MV411 cell line; assay: Cell viability assay ([…]-GLO), MV411; assay type: cell-based; details: for IC50: Homo sapiens, MV4-11, MV411 (ITD-FLT3+), 72 hours treatment; for FLT3-ITD+ Selectivity (K562/MV411): ratio of K562 to MV411 IC50
Experimental: (§1) Cell viability in the presence of varying concentrations of the above listed compounds at different time points was used to assess cytotoxicity and the effect of the compounds on cell proliferation.
(§2) Cell viability was measured by the […]-GlO® cell viability assay from Promega (Madison, Wis.). The […]-GlO® Luminescent Cell Viability Assay is a homogeneous method to determine the number of viable cells in culture based on quantitation of the ATP present, which signals the presence of metabolically active cells. Following treatment, […]-GlO® is added to treatment wells and incubated at 37° C. luminescence values were measured at using a Molecular Devices Spectramax microplate reader.
(§3) Cells were grown to 70% confluency, trypsinized, counted, and seeded in 96 well flat-bottom plates at a final concentration of 2.5×10^3-5×10^3 cells/well (Day 0). Cells were allowed to incubate in growth media for 24 hours. Treatment with the test agents or standard agents began on Day 1 and continued for 72 hours. At the 72-hour time point, treatment containing media was removed.
(§4) For single agent and combination studies, data from each experiment was collected and expressed as % Cell Growth using the following calculation: % Cell Growth=(ftest/fvehicle)×100 Where ftest is the luminescence of the tested sample, and fvehicle is the luminescence of the vehicle in which the drug is dissolved. Dose response graphs and IC50 values were generated using Prism 6 software (GraphPad) using the following equation: Y=(Top−Bottom/(1+10^((logIC50−X)−HillSlope)) Where X is the logarithm of the concentration and Y is the response. Y starts at the Bottom and goes to the Top with a sigmoid shape.
The experiments also evaluated the selectivity of the compounds for inhibiting growth of cancer cells carrying a mutation in the Flt3 gene. The MV411 cell line expresses the mutant allele of Flt3 with internal tandem duplications (ITD) of the gene. See Quentmeier et al., “FLT3 Mutations in Acute Myeloid Leukemia Cell Lines,” Leukemia 17(1), 2003, 120-124. […] See Grafone et al., “Monitoring of FLT3 Phosphorylation Status and Its Response to Drugs By Flow Cytometry in AML Blast Cells,” Hematol Oncol. 26(3), 2008, 159-166. Patients with ITD-FLT3^+ acute myeloid leukemia (AML) experience an extremely poor prognosis.

[2] = target: ROCK2 (Homo sapiens (Human), UniProt O75116); assay: ROCK2 kinase inhibition assay (LABCHIP peptide phosphorylation); assay type: biochemical; details: 7 μM ATP, 2.5 nM ROCK2, 3 hours at 25° C.
Experimental: (§5) The peptide is >98% purity by Capillary Electrophoresis. The peptide is phosphorylated by the protein kinase ROCK1 or ROCK2. The ROCK1 or ROCK2 enzyme, substrate, and cofactors (ATP and Mg^2+) are combined in a well of a microtiter plate and incubated for 3 hours at 25° C. At the end of the incubation, the reaction is quenched by the addition of an EDTA-containing buffer. The substrate and product are separated and quantified electrophoretically using the microfluidic-based LABCHIP® 3000 Drug Discovery System from Caliper Life Sciences (Hopkinton, Mass.).
(§6) Substrate and product peptides present in each sample are separated electrophoretically using the LABCHIP® 3000 capillary electrophoresis instrument. […] Change in the relative fluorescence intensity of the substrate and product peaks is the parameter measured reflecting enzyme activity. Capillary electrophoregramms (RDA acquisition files) are analyzed using HTS Well Analyzer software (Caliper Life Sciences, Hopkinton, Mass.). The kinase activity in each sample is determined as the product to sum ratio (PSR): P/(S+P), where P is the peak height of the product peptide and S is the peak height of the substrate peptide. For each compound, enzyme activity is measured at various concentrations (12 concentrations of compound spaced by 3× dilution intervals). Negative control samples (0%-inhibition in the absence of inhibitor) and positive control samples (100%-inhibition in the presence of 20 mM EDTA) are assembled in replicates of four and are used to calculate %-inhibition values for each compound at each concentration. Percent inhibition (Pinh) is determined using the following equation: Pinh=(PSR0%−PSRinh)/(PSR0%−PSR100%)*100 where PSRinh is the product sum ratio in the presence of inhibitor, PSR/% is the average product sum ratio in the absence of inhibitor, and PSR100% is the average product sum ratio in 100%-inhibition control samples. The IC50 values of inhibitors are determined by fitting the inhibition curves (Pinh versus inhibitor concentration) by 4 parameter sigmoidal dose-response model using XLfit 4 software (IBDS).

[3] = tested on: K562 cell line; assay: Cell viability assay ([…]-GLO), K562; assay type: cell-based; details: Homo sapiens; K562 (does not express ITD-FLT3), 72 hours treatment
Experimental: as §1, §2
as §3, with “removed. Viable cell numbers were quantified by the […]-GLO® cell viability assay as described above. Results from these studies were used to calculate an IC50 value (concentration of drug that inhibits cell growth by 50 percent of control) for each compound.” for “removed.”
as §4, with “shape. […]” for “shape.”

[4] = target: ROCK1 (Homo sapiens (Human), UniProt Q13464); assay: ROCK1 kinase inhibition assay (LABCHIP peptide phosphorylation); assay type: biochemical; details: 5 μM ATP, 3 nM ROCK1, 3 hours at 25° C.
Experimental: as §5, §6

Sequence of ROCK1 (Q13464 whole entry): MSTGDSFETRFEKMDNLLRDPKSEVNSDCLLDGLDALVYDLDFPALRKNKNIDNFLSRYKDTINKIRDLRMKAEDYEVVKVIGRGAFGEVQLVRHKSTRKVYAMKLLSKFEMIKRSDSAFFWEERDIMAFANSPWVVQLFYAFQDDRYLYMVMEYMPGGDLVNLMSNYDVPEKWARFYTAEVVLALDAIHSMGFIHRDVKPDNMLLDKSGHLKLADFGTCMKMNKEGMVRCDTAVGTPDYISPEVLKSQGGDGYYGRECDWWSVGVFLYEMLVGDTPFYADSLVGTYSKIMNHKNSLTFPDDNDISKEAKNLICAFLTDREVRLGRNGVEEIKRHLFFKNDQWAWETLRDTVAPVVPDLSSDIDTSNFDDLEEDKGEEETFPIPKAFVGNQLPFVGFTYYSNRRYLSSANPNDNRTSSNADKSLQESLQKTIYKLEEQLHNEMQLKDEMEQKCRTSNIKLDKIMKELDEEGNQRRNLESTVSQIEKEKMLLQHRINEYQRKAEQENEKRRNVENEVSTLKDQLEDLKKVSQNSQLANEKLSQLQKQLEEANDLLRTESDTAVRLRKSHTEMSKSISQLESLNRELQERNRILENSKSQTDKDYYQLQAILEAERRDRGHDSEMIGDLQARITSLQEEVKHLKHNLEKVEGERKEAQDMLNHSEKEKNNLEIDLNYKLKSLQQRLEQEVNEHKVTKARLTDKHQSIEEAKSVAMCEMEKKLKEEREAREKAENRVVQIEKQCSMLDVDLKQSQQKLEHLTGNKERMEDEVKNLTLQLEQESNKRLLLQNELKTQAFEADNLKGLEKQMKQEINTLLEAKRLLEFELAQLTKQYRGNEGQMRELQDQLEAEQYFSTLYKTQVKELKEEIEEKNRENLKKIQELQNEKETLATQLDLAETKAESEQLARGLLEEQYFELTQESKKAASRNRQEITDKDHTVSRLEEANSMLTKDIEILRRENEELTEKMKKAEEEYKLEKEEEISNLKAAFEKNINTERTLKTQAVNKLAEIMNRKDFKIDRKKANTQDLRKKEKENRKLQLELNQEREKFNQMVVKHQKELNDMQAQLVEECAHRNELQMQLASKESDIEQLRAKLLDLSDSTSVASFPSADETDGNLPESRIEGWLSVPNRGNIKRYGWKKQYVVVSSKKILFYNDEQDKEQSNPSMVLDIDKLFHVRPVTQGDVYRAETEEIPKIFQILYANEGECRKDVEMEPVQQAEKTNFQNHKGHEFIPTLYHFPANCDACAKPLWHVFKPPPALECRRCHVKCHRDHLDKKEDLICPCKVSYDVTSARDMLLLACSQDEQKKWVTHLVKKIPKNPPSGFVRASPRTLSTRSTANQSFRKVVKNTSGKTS
Sequence of ROCK2 (O75116 whole entry): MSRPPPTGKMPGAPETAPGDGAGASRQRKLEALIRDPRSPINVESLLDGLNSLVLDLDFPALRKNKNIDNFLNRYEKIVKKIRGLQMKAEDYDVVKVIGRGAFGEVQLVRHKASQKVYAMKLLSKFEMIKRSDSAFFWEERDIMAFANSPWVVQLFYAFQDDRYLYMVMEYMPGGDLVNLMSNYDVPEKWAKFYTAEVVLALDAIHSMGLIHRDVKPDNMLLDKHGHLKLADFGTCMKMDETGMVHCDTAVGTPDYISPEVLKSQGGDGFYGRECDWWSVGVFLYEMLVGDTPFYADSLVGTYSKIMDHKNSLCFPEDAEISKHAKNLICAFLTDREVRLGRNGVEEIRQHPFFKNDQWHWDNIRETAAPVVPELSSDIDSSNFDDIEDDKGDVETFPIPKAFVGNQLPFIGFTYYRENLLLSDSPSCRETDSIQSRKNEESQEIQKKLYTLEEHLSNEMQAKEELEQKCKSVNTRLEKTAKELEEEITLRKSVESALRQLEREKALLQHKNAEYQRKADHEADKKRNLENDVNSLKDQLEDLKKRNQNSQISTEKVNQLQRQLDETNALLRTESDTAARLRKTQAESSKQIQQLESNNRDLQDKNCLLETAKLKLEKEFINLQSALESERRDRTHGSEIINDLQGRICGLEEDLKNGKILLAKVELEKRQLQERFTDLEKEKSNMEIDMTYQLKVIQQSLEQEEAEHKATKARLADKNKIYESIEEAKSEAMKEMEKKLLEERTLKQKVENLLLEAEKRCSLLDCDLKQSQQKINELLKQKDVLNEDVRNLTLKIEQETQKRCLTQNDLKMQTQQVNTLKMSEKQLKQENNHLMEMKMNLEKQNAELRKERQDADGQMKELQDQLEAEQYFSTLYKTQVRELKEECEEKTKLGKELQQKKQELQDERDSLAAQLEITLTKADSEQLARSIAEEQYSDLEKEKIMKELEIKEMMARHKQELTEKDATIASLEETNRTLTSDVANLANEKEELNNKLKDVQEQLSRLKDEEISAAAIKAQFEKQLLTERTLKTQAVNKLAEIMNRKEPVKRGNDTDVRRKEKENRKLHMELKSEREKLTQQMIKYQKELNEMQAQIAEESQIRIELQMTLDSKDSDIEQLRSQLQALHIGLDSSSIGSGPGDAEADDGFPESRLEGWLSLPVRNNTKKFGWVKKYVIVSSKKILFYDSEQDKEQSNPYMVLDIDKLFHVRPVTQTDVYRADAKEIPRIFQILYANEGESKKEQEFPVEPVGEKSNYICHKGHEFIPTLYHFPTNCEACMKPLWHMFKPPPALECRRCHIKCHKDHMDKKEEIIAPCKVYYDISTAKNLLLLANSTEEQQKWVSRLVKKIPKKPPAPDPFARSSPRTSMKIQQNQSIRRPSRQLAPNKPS

IC50 [1]	IC50 [2]	IC50 [3]	IC50 [4]	Structure (SMILES)	FLT3-ITD+ Selectivity (K562/MV411) [1]
43.7 µM		> 100 µM		O=C(NCc1cccc(O)c1)Nc1cc(-c2ccncc2)[nH]n1 [Compound 3]	>2
10.2 µM	0.0161 µM	43.6 µM	0.073 µM	COc1cccc(CNC(=O)Nc2cc(-c3ccncc3)[nH]n2)c1 [Compound 5]	4
7.6 µM	0.0229 µM	89.1 µM	0.102 µM	COc1cccc(CN(C)C(=O)Nc2cc(-c3ccncc3)[nH]n2)c1 [Compound 7]	12
39.8 µM	0.0391 µM	97.2 µM	0.237 µM	COc1cccc(CN(CCO)C(=O)Nc2cc(-c3ccncc3)[nH]n2)c1 [Compound 9]	2
14.5 µM	0.0221 µM	> 100 µM	0.0636 µM	COc1cccc(CN(CCN(C)C)C(=O)Nc2cc(-c3ccncc3)[nH]n2)c1 [Compound 11]	>7
34 µM	0.0287 µM	85 µM	0.13 µM	COc1cccc(CNC(=O)Nc2cnn(-c3ccncc3)c2)c1 [Compound 25]	3
7.1 µM	0.0174 µM	> 100 µM	0.0651 µM	COc1cccc(CNC(=O)c2cc3ccc(-c4cn[nH]c4)nc3s2)c1 [Compound 40]	>14
7.8 µM		17.8 µM		COc1cc(CNC(=O)Nc2cc(-c3ccncc3)[nH]n2)ccc1F [Compound 47]	2
	1.87 µM		6.4 µM	COc1cccc(CNC(=O)Nc2cc(-c3ccncc3)[nH]n2)c1F [Compound 48]	
7.8 µM		17.8 µM		COc1cc(F)cc(CNC(=O)Nc2cc(-c3ccncc3)[nH]n2)c1 [Compound 49]	2
7.8 µM	0.239 µM	> 100 µM	1.01 µM	COc1ccc(F)c(CNC(=O)Nc2cc(-c3ccncc3)[nH]n2)c1 [Compound 50]	>13
17 µM		> 100 µM		COCCOc1cccc(CNC(=O)Nc2cc(-c3ccncc3)[nH]n2)c1 [Compound 51]	>6
11.2 µM	0.0087 µM	> 100 µM	0.034 µM	COc1cccc([C@@H](C)NC(=O)Nc2cc(-c3ccncc3)n[nH]2)c1 [Compound 52]	>9
93.3 µM		64.6 µM		COc1cccc([C@@H](C)NC(=O)N(C)c2cc(-c3ccncc3)n[nH]2)c1 [Compound 53]	1
12.6 µM		> 100 µM		COc1ccc(OC)c(CNC(=O)Nc2cc(-c3ccncc3)n[nH]2)c1 [Compound 54]	>8
0.7 µM		0.8 µM		Cc1c[nH]c2nccc(Oc3c(F)cc(Nc4cc(Cl)nc(N)n4)cc3F)c12 [Compound A, reference compound]	

Structure (SMILES)	IC50 [1]	IC50 [2]	IC50 [3]	IC50 [4]	FLT3-ITD+ Selectivity (K562/MV411) [1]
O=C(N[C@H](CO)c1cccc(F)c1)c1cc(-c2ccncc2)[nH]n1 [Compound 1]	67.6 µM	0.098 µM	> 100 µM	0.207 µM	>1
